Measurements reported in publication doi:10.1101/2021.04.08.439011v1 (biorxiv, 2021).
Like-named read-outs stand apart in the source and are kept apart here.

Key:
AAK1 = AAK1 (Homo sapiens, UniProt Q2M2I8); settings: 1 µM; binder
ABL1(F317I) = ABL1(F317I) (Homo sapiens, UniProt P00519, F317I); settings: 1 µM, binder
ABL1-phosphorylated = ABL1-phosphorylated (Homo sapiens, UniProt P00519); settings: 1 µM; binder
AXL = AXL (Homo sapiens, UniProt P30530); settings: 1 µM; binder
BRAF(V600E) = BRAF(V600E) (Homo sapiens, UniProt P15056, V600E); settings: 1 µM; binder
CDK5 = CDK5 (Homo sapiens, UniProt Q00535); settings: 1 µM; binder
CSF1R = CSF1R (Homo sapiens, UniProt P07333); settings: 1 µM; binder
CSF1R-autoinhibited = CSF1R-autoinhibited (Homo sapiens, UniProt P07333); settings: 1 µM; binder
EGFR(L858R,T790M) = EGFR(L858R,T790M) (Homo sapiens, UniProt P00533, L858R/T790M); settings: 1 µM; binder
ERK4 = ERK4 (Homo sapiens, UniProt P31152); settings: 1 µM; binder
ERK5 = ERK5 (Homo sapiens, UniProt Q13164); settings: 1 µM; binder
FES = FES (Homo sapiens, UniProt P07332); settings: 1 µM; binder
INSR = INSR (Homo sapiens, UniProt P06213); settings: 1 µM; binder
IRAK4 = IRAK4 (Homo sapiens, UniProt Q9NWZ3); settings: 1 µM; binder
KIT(V559D,V654A) = KIT(V559D,V654A) (Homo sapiens, UniProt P10721, V559D/V654A); settings: 1 µM; binder
LATS1 = LATS1 (Homo sapiens, UniProt O95835); settings: 1 µM; binder
MAP4K2 = MAP4K2 (Homo sapiens, UniProt Q12851); settings: 1 µM; binder
MARK2 = MARK2 (Homo sapiens, UniProt Q7KZI7); settings: 1 µM; binder
MEK1 = MEK1 (Homo sapiens, UniProt Q02750); settings: 1 µM; binder
NEK1 = NEK1 (Homo sapiens, UniProt Q96PY6); settings: 1 µM; binder
PIK3CA(H1047L) = PIK3CA(H1047L) (Homo sapiens, UniProt P42336, H1047L); settings: 1 µM; binder
RET(V804M) = RET(V804M) (Homo sapiens, UniProt P07949, V804M); settings: 1 µM; binder
RIPK1 = RIPK1 (Homo sapiens, UniProt Q13546); settings: 1 µM; binder
ROS1 = ROS1 (Homo sapiens, UniProt P08922); settings: 1 µM; binder
TAOK1 = TAOK1 (Homo sapiens, UniProt Q7L7X3); settings: 1 µM; binder
TLK2 = TLK2 (Homo sapiens, UniProt Q86UE8); settings: 1 µM; binder
TNNI3K = TNNI3K (Homo sapiens, UniProt Q59H18); settings: 1 µM; binder
WNK1 = WNK1 (Homo sapiens, UniProt Q9H4A3); settings: 1 µM; binder
YSK1 = YSK1 (Homo sapiens, UniProt O00506); settings: 1 µM; binder
ZAK = ZAK (Homo sapiens, UniProt Q9NYL2); settings: 1 µM; binder

ABL1(F317I), sequence (P00519 whole entry F317I): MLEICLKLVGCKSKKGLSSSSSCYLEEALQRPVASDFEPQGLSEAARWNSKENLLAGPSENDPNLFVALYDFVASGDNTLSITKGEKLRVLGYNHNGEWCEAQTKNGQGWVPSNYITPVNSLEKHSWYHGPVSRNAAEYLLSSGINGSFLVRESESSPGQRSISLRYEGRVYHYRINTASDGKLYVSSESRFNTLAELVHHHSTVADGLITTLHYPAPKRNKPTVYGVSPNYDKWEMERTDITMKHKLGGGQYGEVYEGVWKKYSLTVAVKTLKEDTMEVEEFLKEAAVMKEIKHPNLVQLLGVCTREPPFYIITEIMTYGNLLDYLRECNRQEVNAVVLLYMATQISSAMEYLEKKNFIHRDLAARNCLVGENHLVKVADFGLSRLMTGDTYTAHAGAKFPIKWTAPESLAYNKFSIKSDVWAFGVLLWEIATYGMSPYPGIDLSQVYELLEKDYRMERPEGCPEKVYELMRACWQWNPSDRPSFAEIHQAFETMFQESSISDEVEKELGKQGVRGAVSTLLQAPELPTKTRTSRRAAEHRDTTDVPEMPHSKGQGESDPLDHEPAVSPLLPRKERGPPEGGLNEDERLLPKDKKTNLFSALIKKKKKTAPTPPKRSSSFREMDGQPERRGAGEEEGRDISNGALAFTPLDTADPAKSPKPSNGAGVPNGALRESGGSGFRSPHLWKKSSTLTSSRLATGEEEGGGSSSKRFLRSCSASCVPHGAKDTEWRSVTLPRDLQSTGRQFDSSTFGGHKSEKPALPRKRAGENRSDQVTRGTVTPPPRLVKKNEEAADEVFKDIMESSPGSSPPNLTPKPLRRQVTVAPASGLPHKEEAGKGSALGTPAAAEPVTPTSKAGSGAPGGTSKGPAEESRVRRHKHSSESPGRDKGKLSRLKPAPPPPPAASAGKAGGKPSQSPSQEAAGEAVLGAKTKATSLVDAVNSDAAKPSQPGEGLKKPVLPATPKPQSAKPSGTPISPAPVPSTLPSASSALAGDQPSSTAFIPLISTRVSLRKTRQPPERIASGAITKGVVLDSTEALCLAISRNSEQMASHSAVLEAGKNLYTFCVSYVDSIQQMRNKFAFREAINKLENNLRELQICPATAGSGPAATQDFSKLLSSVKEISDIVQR
MAP4K2, sequence (Q12851 whole entry): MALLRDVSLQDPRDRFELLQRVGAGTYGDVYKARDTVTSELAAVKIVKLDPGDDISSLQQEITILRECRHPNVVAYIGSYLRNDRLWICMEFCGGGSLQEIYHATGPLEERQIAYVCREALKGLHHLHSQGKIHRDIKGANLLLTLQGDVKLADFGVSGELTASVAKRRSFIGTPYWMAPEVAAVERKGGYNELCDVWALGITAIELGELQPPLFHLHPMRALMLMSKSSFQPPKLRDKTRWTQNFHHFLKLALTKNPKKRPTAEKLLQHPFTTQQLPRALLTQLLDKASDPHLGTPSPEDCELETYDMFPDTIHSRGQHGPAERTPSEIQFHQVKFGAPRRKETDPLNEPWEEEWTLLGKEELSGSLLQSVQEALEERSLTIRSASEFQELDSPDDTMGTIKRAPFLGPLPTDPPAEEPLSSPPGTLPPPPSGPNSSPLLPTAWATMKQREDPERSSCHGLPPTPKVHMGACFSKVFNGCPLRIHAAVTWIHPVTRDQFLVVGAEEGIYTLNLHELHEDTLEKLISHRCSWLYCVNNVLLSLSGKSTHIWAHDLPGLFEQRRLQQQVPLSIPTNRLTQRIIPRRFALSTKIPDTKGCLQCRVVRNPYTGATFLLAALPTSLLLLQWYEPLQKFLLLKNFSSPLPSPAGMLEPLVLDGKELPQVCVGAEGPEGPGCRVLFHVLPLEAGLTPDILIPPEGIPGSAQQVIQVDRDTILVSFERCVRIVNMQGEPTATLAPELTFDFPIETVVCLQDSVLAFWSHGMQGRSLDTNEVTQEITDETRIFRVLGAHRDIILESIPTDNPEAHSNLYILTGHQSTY
KIT(V559D,V654A), sequence (P10721 whole entry V559D/V654A): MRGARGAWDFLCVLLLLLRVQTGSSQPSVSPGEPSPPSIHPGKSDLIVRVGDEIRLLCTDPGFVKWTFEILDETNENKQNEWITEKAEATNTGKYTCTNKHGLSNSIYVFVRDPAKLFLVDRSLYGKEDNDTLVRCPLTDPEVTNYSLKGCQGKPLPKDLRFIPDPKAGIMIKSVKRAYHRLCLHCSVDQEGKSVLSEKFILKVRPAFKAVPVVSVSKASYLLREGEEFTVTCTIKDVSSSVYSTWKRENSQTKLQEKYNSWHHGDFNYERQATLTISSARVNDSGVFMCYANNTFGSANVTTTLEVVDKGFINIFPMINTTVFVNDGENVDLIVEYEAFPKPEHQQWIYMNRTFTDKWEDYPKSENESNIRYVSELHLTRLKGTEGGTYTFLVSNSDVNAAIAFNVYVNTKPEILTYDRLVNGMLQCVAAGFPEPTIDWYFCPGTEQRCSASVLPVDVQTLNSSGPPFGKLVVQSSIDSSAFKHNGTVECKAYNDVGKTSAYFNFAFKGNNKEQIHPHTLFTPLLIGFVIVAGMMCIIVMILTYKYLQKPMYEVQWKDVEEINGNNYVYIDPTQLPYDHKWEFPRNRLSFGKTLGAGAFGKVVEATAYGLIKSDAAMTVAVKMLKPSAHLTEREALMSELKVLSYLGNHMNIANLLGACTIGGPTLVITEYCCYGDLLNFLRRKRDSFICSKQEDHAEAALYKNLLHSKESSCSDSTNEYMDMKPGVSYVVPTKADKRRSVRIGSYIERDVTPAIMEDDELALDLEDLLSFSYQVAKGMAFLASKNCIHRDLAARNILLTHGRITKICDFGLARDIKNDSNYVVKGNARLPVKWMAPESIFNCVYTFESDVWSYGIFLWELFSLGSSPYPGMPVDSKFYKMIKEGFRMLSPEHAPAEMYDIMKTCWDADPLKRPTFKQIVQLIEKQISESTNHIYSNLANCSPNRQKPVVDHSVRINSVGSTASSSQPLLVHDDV
MEK1, sequence (Q02750 whole entry): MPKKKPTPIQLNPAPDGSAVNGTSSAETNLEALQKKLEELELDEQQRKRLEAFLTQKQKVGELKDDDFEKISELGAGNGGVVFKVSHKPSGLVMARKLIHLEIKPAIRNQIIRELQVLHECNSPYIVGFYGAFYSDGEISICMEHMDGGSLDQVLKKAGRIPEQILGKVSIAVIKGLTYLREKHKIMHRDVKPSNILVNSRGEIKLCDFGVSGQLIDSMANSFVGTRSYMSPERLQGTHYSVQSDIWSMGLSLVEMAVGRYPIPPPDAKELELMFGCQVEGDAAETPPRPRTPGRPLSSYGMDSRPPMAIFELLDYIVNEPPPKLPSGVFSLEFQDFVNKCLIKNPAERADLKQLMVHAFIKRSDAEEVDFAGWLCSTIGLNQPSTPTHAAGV
ERK5, sequence (Q13164 whole entry): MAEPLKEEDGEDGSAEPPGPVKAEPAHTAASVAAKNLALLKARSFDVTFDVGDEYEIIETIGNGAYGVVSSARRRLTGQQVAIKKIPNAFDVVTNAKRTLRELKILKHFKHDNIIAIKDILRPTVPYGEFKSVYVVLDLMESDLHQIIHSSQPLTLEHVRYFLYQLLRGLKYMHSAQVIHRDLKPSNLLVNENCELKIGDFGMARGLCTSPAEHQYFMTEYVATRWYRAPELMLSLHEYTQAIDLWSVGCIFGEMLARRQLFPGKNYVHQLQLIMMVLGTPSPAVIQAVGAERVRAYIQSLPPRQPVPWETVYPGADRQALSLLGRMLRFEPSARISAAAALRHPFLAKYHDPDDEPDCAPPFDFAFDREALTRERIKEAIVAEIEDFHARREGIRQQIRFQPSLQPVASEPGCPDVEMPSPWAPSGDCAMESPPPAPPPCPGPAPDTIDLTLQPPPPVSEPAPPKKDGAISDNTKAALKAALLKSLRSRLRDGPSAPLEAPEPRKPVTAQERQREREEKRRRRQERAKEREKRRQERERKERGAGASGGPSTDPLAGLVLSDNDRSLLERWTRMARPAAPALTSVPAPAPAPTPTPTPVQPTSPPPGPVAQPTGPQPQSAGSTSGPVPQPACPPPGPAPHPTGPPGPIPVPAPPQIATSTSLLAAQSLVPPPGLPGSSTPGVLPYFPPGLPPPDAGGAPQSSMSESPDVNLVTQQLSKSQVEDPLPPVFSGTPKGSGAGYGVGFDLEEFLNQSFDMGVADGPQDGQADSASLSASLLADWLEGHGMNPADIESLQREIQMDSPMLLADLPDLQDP
BRAF(V600E), sequence (P15056 whole entry V600E): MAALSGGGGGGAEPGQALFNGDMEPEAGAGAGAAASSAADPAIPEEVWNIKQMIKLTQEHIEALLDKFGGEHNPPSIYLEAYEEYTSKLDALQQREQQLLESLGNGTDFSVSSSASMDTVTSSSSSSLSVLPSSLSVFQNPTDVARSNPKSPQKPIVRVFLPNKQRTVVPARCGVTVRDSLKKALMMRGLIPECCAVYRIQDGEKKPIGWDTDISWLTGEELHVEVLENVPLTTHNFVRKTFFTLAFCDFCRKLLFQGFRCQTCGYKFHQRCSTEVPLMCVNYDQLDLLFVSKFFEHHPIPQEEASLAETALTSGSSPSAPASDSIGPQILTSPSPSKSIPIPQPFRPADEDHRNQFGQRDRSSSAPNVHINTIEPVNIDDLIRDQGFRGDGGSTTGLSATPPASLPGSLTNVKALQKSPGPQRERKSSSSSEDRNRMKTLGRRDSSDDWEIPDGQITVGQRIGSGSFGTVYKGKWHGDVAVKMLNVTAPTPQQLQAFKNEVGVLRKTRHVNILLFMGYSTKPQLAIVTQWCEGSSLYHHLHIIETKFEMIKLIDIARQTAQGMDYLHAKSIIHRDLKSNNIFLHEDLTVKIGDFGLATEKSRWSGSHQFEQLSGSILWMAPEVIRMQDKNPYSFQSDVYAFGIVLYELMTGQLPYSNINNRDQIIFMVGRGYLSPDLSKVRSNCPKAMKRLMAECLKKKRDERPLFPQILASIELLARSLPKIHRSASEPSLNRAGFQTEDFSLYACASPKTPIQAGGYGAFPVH
ABL1-phosphorylated, sequence (P00519 whole entry): as the sequence (P00519 whole entry F317I) above, with I317F counted along it

## CNc1ncc2cc(-c3ccc(-c4cccc(C)n4)cc3Cl)c(=O)n(C[C@H]3OC[C@H](N)CO3)c2n1 [compound 6, G-5555]
AAK1
  Percent Control: 100%
ABL1(F317I); nonphosphorylated
  Percent Control: 100%
ABL1(F317I); phosphorylated
  Percent Control: 96%
ABL1-phosphorylated
  Percent Control: 95%
AXL
  Percent Control: 96%
BRAF(V600E)
  Percent Control: 93%
CDK5
  Percent Control: 98%
CSF1R
  Percent Control: 92%
CSF1R-autoinhibited
  Percent Control: 84%
EGFR(L858R,T790M)
  Percent Control: 100%
ERK4
  Percent Control: 100%
ERK5
  Percent Control: 52%
FES
  Percent Control: 84%
INSR
  Percent Control: 97%
IRAK4
  Percent Control: 95%
KIT(V559D,V654A)
  Percent Control: 100%
LATS1
  Percent Control: 41%
MAP4K2
  Percent Control: 32%
MARK2
  Percent Control: 49%
MEK1
  Percent Control: 1%
NEK1
  Percent Control: 100%
PIK3CA(H1047L)
  Percent Control: 100%
RET(V804M)
  Percent Control: 100%
RIPK1
  Percent Control: 100%
ROS1
  Percent Control: 100%
TAOK1
  Percent Control: 87%
TLK2
  Percent Control: 100%
TNNI3K
  Percent Control: 98%
WNK1
  Percent Control: 69%
YSK1
  Percent Control: 36%
ZAK
  Percent Control: 100%
